Measurements reported in patent US20240368214A1, “POSITIVE NMDA-MODULATING COMPOUNDS AND METHODS OF USE THEREOF” (SAGE THERAPEUTICS, INC., priority 2021, published 2024).
Read-outs that look alike come from different tables or passages of the source.

Target: T1, recombinant human GluN1/GluN2A receptor (Homo sapiens, UniProt Q05586+Q12879)
T1 construct: expressed in transfected cells; host or cells: HEK293, tetracycline-inducible expression
Assay: Whole-cell patch clamp of mammalian cells (Syncropatch 384i), NMDA modulation
Format: cell-based
Conditions: HEK293 cells, human GluN1/GluN2A, glutamate 1 μM / glycine 100 μM, -80 mV, peak amplitude increase; for EC50: read-out: EC50
Procedure, shortened: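 Modulation read as fold rise in peak current, (Icomp/Icontrol)−1, from 8 concentrations with ≥2 wells each, four-parameter fit. Compound pre-incubated 120 s then co-applied with 1 μM glutamate plus 100 μM glycine; tetracycline-inducible HEK293 GluN1/GluN2A cells clamped at −80 mV.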

T1 sequence (Q12879 23-1464, other chains not shown): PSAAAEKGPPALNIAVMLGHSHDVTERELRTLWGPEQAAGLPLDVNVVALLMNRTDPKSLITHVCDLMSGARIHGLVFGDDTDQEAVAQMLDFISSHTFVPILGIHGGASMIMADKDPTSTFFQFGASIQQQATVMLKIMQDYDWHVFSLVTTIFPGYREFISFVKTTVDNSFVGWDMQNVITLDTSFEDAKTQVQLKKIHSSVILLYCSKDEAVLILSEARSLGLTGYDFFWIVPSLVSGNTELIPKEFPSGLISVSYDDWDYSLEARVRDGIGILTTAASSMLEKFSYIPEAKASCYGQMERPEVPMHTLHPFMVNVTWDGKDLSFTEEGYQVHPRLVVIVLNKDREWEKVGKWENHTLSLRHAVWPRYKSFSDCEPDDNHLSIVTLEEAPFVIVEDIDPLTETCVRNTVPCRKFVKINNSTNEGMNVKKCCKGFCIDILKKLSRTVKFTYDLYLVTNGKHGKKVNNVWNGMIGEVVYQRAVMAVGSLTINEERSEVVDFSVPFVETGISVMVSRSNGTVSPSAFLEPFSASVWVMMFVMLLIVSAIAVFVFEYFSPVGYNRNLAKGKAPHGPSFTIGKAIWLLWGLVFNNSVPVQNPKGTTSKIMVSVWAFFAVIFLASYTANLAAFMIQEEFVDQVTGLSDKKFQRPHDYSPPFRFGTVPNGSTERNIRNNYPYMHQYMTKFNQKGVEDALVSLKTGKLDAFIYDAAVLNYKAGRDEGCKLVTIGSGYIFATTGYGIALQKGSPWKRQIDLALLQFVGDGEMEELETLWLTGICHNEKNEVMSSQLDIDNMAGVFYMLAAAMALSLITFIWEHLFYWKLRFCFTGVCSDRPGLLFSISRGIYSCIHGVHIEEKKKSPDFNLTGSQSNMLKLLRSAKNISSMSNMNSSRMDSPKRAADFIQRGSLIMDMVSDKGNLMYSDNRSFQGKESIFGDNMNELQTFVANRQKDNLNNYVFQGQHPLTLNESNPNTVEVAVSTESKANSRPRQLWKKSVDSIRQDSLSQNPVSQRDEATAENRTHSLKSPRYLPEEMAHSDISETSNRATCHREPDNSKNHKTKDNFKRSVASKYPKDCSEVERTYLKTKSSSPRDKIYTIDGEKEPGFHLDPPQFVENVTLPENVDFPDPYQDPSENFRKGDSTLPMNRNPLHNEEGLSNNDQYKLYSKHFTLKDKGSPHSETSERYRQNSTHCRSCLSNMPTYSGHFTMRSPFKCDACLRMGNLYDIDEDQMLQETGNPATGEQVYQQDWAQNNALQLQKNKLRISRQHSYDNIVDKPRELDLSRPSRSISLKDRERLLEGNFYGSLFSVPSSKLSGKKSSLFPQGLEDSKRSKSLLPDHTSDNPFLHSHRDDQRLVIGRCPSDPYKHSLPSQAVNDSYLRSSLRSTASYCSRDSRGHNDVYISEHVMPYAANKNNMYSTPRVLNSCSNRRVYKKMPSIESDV

Compound: CC[C@]12CC[C@H]3[C@@H](CC=C4C[C@@](C)(O)CC[C@@]43C)[C@@H]1CC[C@@H]2[C@H](C)CC[C@@H](O)C(C)C [Compound F-4, (3S,8S,9S,10R,13R,14S,17R)-13-ethyl-17-((2R,5R)-5-hydroxy-6-methylheptan-2-yl)-3,10-dimethyl-2,3,4,7,8,9,10,11,12,13,14,15,16,17-tetradecahydro-1H-cyclopenta[a]phenanthren-3-ol]
- EC50 (Table F-2): 100 to 500 nM

Compound: CC[C@]1(O)CC[C@@]2(C)[C@@H](CC[C@H]3[C@@H]4[C@@H]5C[C@@H]5[C@H]([C@H](C)CCCC(C)(C)O)[C@@]4(C)CC[C@@H]32)C1 [Compound B-1, (2S,4aS,4bS,6aR,7S,7aS,8aR,8bS,8cR,10aS)-2-ethyl-7-((R)-6-hydroxy-6-methylheptan-2-yl)-4a,6a-dimethyloctadecahydrocyclopropa[4,5]cyclopenta[1,2-a]phenanthren-2-ol]
- Emax (Table B-2): > 200%
- EC50 (Table B-2): 1 to 100 nM

Compound: CC[C@]1(O)CC[C@@]2(C)[C@@H](CC[C@@H]3[C@@H]2CC[C@]2(C)[C@@H]([C@@H](CC[C@H](O)C(C)C)OC)CC[C@@H]32)C1 [Compound A-7, (3S,5S,8R,9S,10S,13S,14S,17S)-3-ethyl-17-((1R,4S)-4-hydroxy-1-methoxy-5-methylhexyl)-10,13-dimethylhexadecahydro-1H-cyclopenta[a]phenanthren-3-ol]
- Emax (Table A-2): > 200%
- EC50 (Table A-2): 100 to 500 nM

Compound: CC[C@]1(O)CC[C@@]2(C)[C@@H](CC[C@@H]3[C@@H]2CC[C@]2(C)[C@@H]([C@@H](CC[C@@H](O)C(C)C)OC)CC[C@@H]32)C1 [Compound A-6, (3S,5S,8R,9S,10S,13S,14S,17S)-3-ethyl-17-((1R,4R)-4-hydroxy-1-methoxy-5-methylhexyl)-10,13-dimethylhexadecahydro-1H-cyclopenta[a]phenanthren-3-ol]
- Emax (Table A-2): > 200%
- EC50 (Table A-2): 100 to 500 nM

Compound: CC[C@]1(O)CC[C@@]2(C)[C@@H](CC[C@@H]3[C@@H]2CC[C@]2(C)[C@@H]([C@H](C)CC[C@@H](O)CC#N)CC[C@@H]32)C1 [Compound C-11, (3R,6R)-6-((3S,5S,8R,9S,10S,13R,14S,17R)-3-ethyl-3-hydroxy-10,13-dimethylhexadecahydro-1H-cyclopenta[a]phenanthren-17-yl)-3-hydroxyheptanenitrile]
- Emax (Table C-2): 100 to 200%
- EC50 (Table C-2): 1 to 100 nM

Compound: C[C@H](CC[C@@](C)(O)C(F)(F)F)[C@H]1CCC[C@H]2[C@@H]3CC=C4C[C@@](C)(O)CC[C@]4(C)[C@H]3CC[C@]12C [Compound H-11, (2S,4aR,4bS,6aR,7R,10aS,10bS)-2,4a,6a-trimethyl-7-((2R,5R)-6,6,6-trifluoro-5-hydroxy-5-methylhexan-2-yl)-1,2,3,4,4a,4b,5,6,6a,7,8,9,10,10a,10b,11-hexadecahydrochrysen-2-ol]
- EC50 (Table H-2): 100 to 500 nM

Compound: CC[C@]1(O)CCC[C@@]2(C)C(=CC[C@H]3[C@@H]4CC[C@H]([C@H](C)CC[C@](C)(O)C(F)(F)F)[C@@]4(C)CC[C@@H]32)C1 [Compound D-17, (1R,3aS,3bS,7S,10aR,10bS,12aR)-7-ethyl-10a,12a-dimethyl-1-((2R,5S)-6,6,6-trifluoro-5-hydroxy-5-methylhexan-2-yl)-1,2,3,3a,3b,4,6,7,8,9,10,10a,10b,11,12,12a-hexadecahydrocyclohepta[a]cyclopenta[f]naphthalen-7-ol]
- Emax (Table D-2): 100 to 200%
- EC50 (Table D-2): 100 to 500 nM

Compound: C[C@H](CC[C@H](O)C1(C#N)CC1)[C@H]1CC[C@H]2[C@@H]3CC=C4C[C@@](C)(O)CC[C@]4(C)[C@H]3CC[C@]12C [Compound C-22, 1-((1S,4R)-1-hydroxy-4-((3S,8S,9S,10R,13R,14S,17R)-3-hydroxy-3,10,13-trimethyl-2,3,4,7,8,9,10,11,12,13,14,15,16,17-tetradecahydro-1H-cyclopenta[a]phenanthren-17-yl)pentyl)cyclopropane-1-carbonitrile]
- Emax (Table C-2): < 100%
- EC50 (Table C-2): 1 to 100 nM

Compound: CC[C@]1(O)CC[C@@]2(C)[C@@H](CC[C@H]3[C@@H]4[C@H](C)C[C@H]([C@H](C)CC[C@](C)(O)C(F)(F)F)[C@@]4(C)CC[C@@H]32)C1 [Compound B-15, (3S,5S,8R,9S,10S,13R,14S,15R,17R)-3-ethyl-10,13,15-trimethyl-17-((2R,5S)-6,6,6-trifluoro-5-hydroxy-5-methylhexan-2-yl)hexadecahydro-1H-cyclopenta[a]phenanthren-3-ol]
- Emax (Table B-2): 100 to 200%
- EC50 (Table B-2): 1 to 100 nM

Compound: CC[C@]1(O)CC[C@@]2(C)[C@@H](CC[C@@H]3[C@@H]2CC[C@]2(C)[C@@H]([C@H](C)CC[C@@H](O)C(C)(C)C#N)CC[C@@H]32)C1 [Compound C-1, (3R,6R)-6-((3S,5S,8R,9S,10S,13R,14S,17R)-3-ethyl-3-hydroxy-10,13-dimethylhexadecahydro-1H-cyclopenta[a]phenanthren-17-yl)-3-hydroxy-2,2-dimethylheptanenitrile]
- Emax (Table C-2): > 200%
- EC50 (Table C-2): 1 to 100 nM

Compound: CC[C@]1(O)CCC[C@@]2(C)[C@@H](CC[C@@H]3[C@@H]2CC[C@]2(C)[C@@H]([C@H](C)CC[C@](C)(O)C(F)(F)F)CC[C@@H]32)C1 [Compound D-7, (1R,3aS,3bR,5aS,7S,10aS,10bS,12aR)-7-ethyl-10a,12a-dimethyl-1-((2R,5S)-6,6,6-trifluoro-5-hydroxy-5-methylhexan-2-yl)octadecahydrocyclohepta[a]cyclopenta[f]naphthalen-7-ol]
- Emax (Table D-2): 100 to 200%
- EC50 (Table D-2): 1 to 100 nM

Compound: CCO[C@H](CC[C@H](O)C(C)C)[C@H]1CC[C@H]2[C@@H]3CC[C@@H]4C[C@](O)(CC)CC[C@]4(C)[C@H]3CC[C@]12C [Compound A-11a, (3S,5R,8R,9S,10S,13S,14S,17S)-17-((1R,4S)-1-ethoxy-4-hydroxy-5-methylhexyl)-3-ethyl-10,13-dimethylhexadecahydro-1H-cyclopenta[a]phenanthren-3-ol]
- Emax (Table A-2): < 100%
- EC50 (Table A-2): > 1000 nM

Compound: CC[C@]1(O)CC[C@]2(C)C3=CC[C@]4(C)[C@@H]([C@H](C)CCCC(C)(C)O)CC[C@H]4[C@@H]3CC[C@H]2C1 [Compound E-1, (3S,5S,8S,10S,13R,14S,17R)-3-ethyl-17-((R)-6-hydroxy-6-methylheptan-2-yl)-10,13-dimethyl-2,3,4,5,6,7,8,10,12,13,14,15,16,17-tetradecahydro-1H-cyclopenta[a]phenanthren-3-ol]
- Emax (Table E-2): < 100%
- EC50 (Table E-2): 1 to 100 nM

Compound: CC[C@]1(O)CC[C@@]2(CC)[C@@H](CC[C@H]3[C@@H]4CC[C@H]([C@H](C)CC[C@](C)(O)C(F)(F)F)[C@@]4(C)CC[C@@H]32)C1 [Compound G-5, (3S,5S,8S,9S,10S,13R,14S,17R)-3,10-diethyl-13-methyl-17-((2R,5S)-6,6,6-trifluoro-5-hydroxy-5-methylhexan-2-yl)hexadecahydro-1H-cyclopenta[a]phenanthren-3-ol]
- Emax (Table G-2): > 200%
- EC50 (Table G-2): 1 to 100 nM

Compound: CC[C@@]1(O)CCC[C@@]2(C)[C@@H](CC[C@@H]3[C@@H]2CC[C@]2(C)[C@@H]([C@H](C)CC[C@@](C)(O)C(F)(F)F)CC[C@@H]32)C1 [Compound D-6, (1R,3aS,3bR,5aS,7R,10aS,10bS,12aR)-7-ethyl-10a,12a-dimethyl-1-((2R,5R)-6,6,6-trifluoro-5-hydroxy-5-methylhexan-2-yl)octadecahydrocyclohepta[a]cyclopenta[f]naphthalen-7-ol]
- Emax (Table D-2): 100 to 200%
- EC50 (Table D-2): 1 to 100 nM
